Data on 7 molecules can be found in US9604980B2, “Substituted pyrimidinyl and pyridinyl-pyrrolopyridinones, process for their preparation and their use as kinase inhibitors” (NERVIANO MEDICAL SCIENCES S.r.l, priority 2012, dated 2017).

Data set [1] can be described thus: High-Throughput Solubility Assay. Format: physicochemical. As to conditions: kinetic from dmso stock; pH 7, aqueous potassium phosphate buffer, nominal 200 μM, 24 h at room temperature. On the procedure: High-Throughput Solubility Assay
A nominal 200 μM suspensions/solutions of a compound of formula (I) in aqueous potassium phosphate buffer at pH=7 and aqueous citric acid buffer at pH=3 were prepared on a “Multiscreen-HTS”, 0.2 μm filter plate (Millipore, Billerica, Mass.). These solutions were stirred for 10 min and stored for 24 h at room temperature to pre-saturate the membrane filter and to reach a “pseudo-thermodynamic solubility”. Then the plate was put on a 500 μL 96 multiwell plate containing 200 μL of acetonitrile in each well and centrifuged at 2000 rpm for 5 minutes. The so obtained solutions were then analyzed simultaneously by HPLC-UV with standard solutions for quantification.

The test system of data set [2] is A2780 ovarian carcinoma cells. The data set is described as follows: In Vitro Cell Proliferation Assay (A2780). Particulars: Homo sapiens, 72 hours exposure, CellTiterGlo. Format: cell-based. The protocol:
(§1) In Vitro Cell Proliferation Assay
(§2) To evaluate the antiproliferative activity of a compound of formula (I) the following human cell lines were used: A2780 ovarian and MCF-7 breast carcinoma; TT and MZ-CRC-1 medullary thyroid carcinoma, harboring a mutated RET-C634W and RET-M918T receptor respectively, LC-2/ad Non Small Cell Lung Carcinoma, expressing the CCDC6-RET fusion gene product. Exponentially growing cells were seeded and incubated at 37° C. in a humidified 5% C02 atmosphere using appropriate medium supplemented with 10% Fetal Bovine Serum. 24 hours following cell plating, scalar doses of the compounds dissolved in 0.1% DMSO were added to the medium and cells were exposed to drugs for either 72 hours (MCF-7 and A2780) or 144 hours (TT, MZ-CRC-1 and LC-2/ad), according to their different proliferation rate. At the end of treatment, cell proliferation was determined by an intracellular ATP monitoring system (CellTiterGlo—Promega), following manufacturer's instructions, and using an Envision instrument (PerkinElmer) as reader. Data obtained from compound versus vehicle treated cells were compared using Assay Explorer (Symyx Technologies Inc) software. IC50 values were calculated using sigmoidal interpolation curve fitting.

The subject of data set [3] is MCF-7 breast carcinoma cells. Nature of the data set: In Vitro Cell Proliferation Assay (MCF-7). As to conditions: Homo sapiens, MCF7; 72 hours exposure, CellTiterGlo. It counts as cell-based. The protocol:
as §1, §2

The test system of data set [4] is TT medullary thyroid carcinoma cells, harboring a mutated RET-C634W receptor. Nature of the data set: In Vitro Cell Proliferation Assay (TT). It counts as cell-based. As to conditions: Homo sapiens; 144 hours exposure, CellTiterGlo. The protocol:
as §1, §2

Values after ≈ are worked out from the molar mass of the structure shown.

`CCN1CCN(Cc2cc(NC(=O)Nc3cccc(C#Cc4cnc(N)nc4-c4cc5c(n4C)CCNC5=O)c3)ccc2C(F)(F)F)CC1` [Cmpd 22, 1-{3-[2-Amino-4-(1-methyl-4-oxo-4,5,6,7-tetrahydro-1H-pyrrolo[3,2-c]pyridin-2-yl)-pyrimidin-5-ylethynyl]-phenyl}-3-[3-(4-ethyl-piperazin-1-ylmethyl)-4-trifluoromethyl-phenyl]-urea] displayed a solubility at 24 h in data set [1] of 5.8 µM (≈ 3.9 µg/mL). Further, the IC50 in data set [2] stood at 1.15 µM; in data set [3], 2.81 µM; in data set [4], 0.007 µM.
For `CCN1CCN(Cc2cc(NC(=O)Nc3cccc(C#Cc4cnc(N)nc4-c4cc5c(n4C)CCNC5=O)c3)cc(C(F)(F)F)c2)CC1` [Cmpd 29, 1-{3-[2-Amino-4-(1-methyl-4-oxo-4,5,6,7-tetrahydro-1H-pyrrolo[3,2-c]pyridin-2-yl)-pyrimidin-5-ylethynyl]-phenyl}-3-[3-(4-ethyl-piperazin-1-ylmethyl)-5-trifluoromethyl-phenyl]-urea], in that order: 7.4 µM (≈ 4.97 µg/mL), 2.23 µM, 9.16 µM and 0.085 µM.
As for `CCN1CCN(Cc2ccc(NC(=O)Nc3ccc(C#Cc4cnc(N)nc4-c4cc5c(n4C)CCNC5=O)cc3)cc2C(F)(F)F)CC1` [Cmpd 30, 1-{4-[2-Amino-4-(1-methyl-4-oxo-4,5,6,7-tetrahydro-1H-pyrrolo[3,2-c]pyridin-2-yl)-pyrimidin-5-ylethynyl]-phenyl}-3-[4-(4-ethyl-piperazin-1-ylmethyl)-3-trifluoromethyl-phenyl]-urea], the solubility at 24 h in data set [1] worked out at 1.7 µM (≈ 1.14 µg/mL). For the same molecule, the IC50 is 1 µM in data set [2], 2.19 µM in data set [3] and 0.008 µM in data set [4].
With `CCN1CCN(Cc2ccc(NC(=O)Nc3cccc(C#Cc4cnccc4-c4cc5c(n4C)CCNC5=O)c3)cc2C(F)(F)F)CC1` [Cmpd 38, 1-[4-(4-Ethyl-piperazin-1-ylmethyl)-3-trifluoromethyl-phenyl]-3-{3-[4-(1-methyl-4-oxo-4,5,6,7-tetrahydro-1H-pyrrolo[3,2-c]pyridin-2-yl)-pyridin-3-ylethynyl]-phenyl}-urea], the solubility at 24 h in data set [1] turned out to be 10.8 µM (≈ 7.08 µg/mL). Besides, the figures for the 50% inhibitory concentration (IC50) in data set [2], in data set [3] and in data set [4] were 1.95 µM, 5.04 µM and 0.038 µM, respectively.
`Cn1nc(C(C)(C)C)cc1NC(=O)Cc1cccc(C#Cc2cnc(N)nc2-c2cc3c(n2C)CCNC3=O)c1` [Cmpd 105, 2-{3-[2-Amino-4-(1-methyl-4-oxo-4,5,6,7-tetrahydro-1H-pyrrolo[3,2-c]pyridin-2-yl)-pyrimidin-5-ylethynyl]-phenyl}-N-(5-tert-butyl-2-methyl-2H-pyrazol-3-yl)-acetamide]: the solubility at 24 h in data set [1] came out at 15.3 µM (≈ 8.21 µg/mL). The results for the IC50 in data set [2], in data set [3] and in data set [4] were 2.74 µM, greater than 10 µM and 0.025 µM, respectively.
The like results for `CCN1CCN(Cc2ccc(NC(=O)Cc3cncc(C#Cc4cnc(N)nc4-c4cc5c(n4C)CCNC5=O)c3)cc2C(F)(F)F)CC1` [Cmpd 122, 2-{5-[2-Amino-4-(1-methyl-4-oxo-4,5,6,7-tetrahydro-1H-pyrrolo[3,2-c]pyridin-2-yl)-pyrimidin-5-ylethynyl]-pyridin-3-yl}-N-[4-(4-ethyl-piperazin-1-ylmethyl)-3-trifluoromethyl-phenyl]-acetamide] were, in that order, 9.4 µM (≈ 6.31 µg/mL), 0.704 µM, 2.69 µM and 0.001 µM.
Molecule `CCN1CCN(Cc2ccc(NC(=O)Cc3ccc(C#Cc4cnc(N)nc4-c4cc5c(n4C)CCNC5=O)cc3)cc2C(F)(F)F)CC1` [Cmpd 123, 2-{4-[2-Amino-4-(1-methyl-4-oxo-4,5,6,7-tetrahydro-1H-pyrrolo[3,2-c]pyridin-2-yl)-pyrimidin-5-ylethynyl]-phenyl}-N-[4-(4-ethyl-piperazin-1-ylmethyl)-3-trifluoromethyl-phenyl]-acetamide] had a solubility at 24 h in data set [1] of 25.1 µM (≈ 16.8 µg/mL). Further, the half-maximal inhibitory concentration (IC50) was 3.9 µM in data set [2], greater than 10 µM in data set [3] and 0.06 µM in data set [4].
